PMC3155477, “Cinnamon extract inhibits α-glucosidase activity and dampens postprandial glucose excursion in diabetic rats” (Nutrition & Metabolism, 2011)
Values after ≈ are worked out from the molar mass of the structure shown.

Tests used:
[1] = biological target: T1, rat-intestinal α-glucosidase (mammalian α-glucosidase); test: p-nitrophenol release from PNPG; type: biochemical; conditions: PNPG substrate (20 μl of 1 mM added), 50 mM phosphate pH 6.8, 37°C, 5 min pre-incubation, 30 min
T1 construct: gene Mgam; crude supernatant of sonicated rat-intestinal acetone powder (Sigma); native enzymes, not purified

[2] = system: T1, rat-intestinal α-glucosidase (mammalian α-glucosidase); test: Lineweaver-Burk plot, p-nitrophenol release; type: biochemical; conditions: no cinnamon extract; 0.5-4 mM PNPG, 37°C, 30 min
Text: Lineweaver-Burk plot, p-nitrophenol release on rat-intestinal α-glucosidase (mammalian α-glucosidase)

Compound	IC50 [1] [µg/mL]	Km [2] [µM]
C[C@H]1O[C@H](O[C@H]2[C@H](O)[C@@H](O)[C@@H](O[C@H]3[C@H](O)[C@@H](O)C(O)O[C@@H]3CO)O[C@@H]2CO)[C@H](O)[C@@H](O)[C@@H]1N[C@H]1C=C(CO)[C@@H](O)[C@H](O)[C@H]1O (some centres unmarked) [Acarbose]	34.11 (≈ 52.8 µM)	
O=[N+]([O-])c1ccc(O[C@H]2O[C@H](CO)[C@@H](O)[C@H](O)[C@H]2O)cc1 [p-Nitrophenyl-α-D-glucopyranoside]		850
